Experimental data reported in ChEMBL document CHEMBL1255302, “Genetic structures at the origin of acquisition of the beta-lactamase bla KPC gene” (2008).
≈ marks a conversion by molar mass, not a printed value.

Assays:
Assay type in all cases: functional
Escherichia coli [1] = assay: Antibacterial activity against Escherichia coli DH10B expressing blaKPC gene by Etest method
Klebsiella pneumoniae [2] = assay: Antibacterial activity against Klebsiella pneumoniae 633 by Etest method in presence of beta-lactamase inhibitor clavulanic acid
Klebsiella pneumoniae [3] = assay: Antibacterial activity against Klebsiella pneumoniae YC by Etest method in presence of beta-lactamase inhibitor clavulanic acid
Pseudomonas aeruginosa [4] = assay: Antibacterial activity against Pseudomonas aeruginosa 2404 plasmid by Etest method
Klebsiella pneumoniae [5] = assay: Antibacterial activity against Klebsiella pneumoniae KN2303 by Etest method
Escherichia coli [6] = assay: Antibacterial activity against Escherichia coli harboring pNGR plasmid expressing blaKPC gene by Etest method
Klebsiella pneumoniae [7] = assay: Antibacterial activity against Klebsiella pneumoniae 633 by Etest method
Escherichia coli [8] = assay: Antibacterial activity against Escherichia coli harboring pCOL plasmid expressing blaKPC gene by Etest method
Escherichia coli [9] = assay: Antibacterial activity against Escherichia coli harboring pBC2303 expressing blaKPC gene plasmid by Etest method
Escherichia coli [10] = assay: Antibacterial activity against Escherichia coli harboring pCOL plasmid expressing blaKPC gene by Etest method in presence of beta-lactamase inhibitor clavulanic acid
Escherichia coli [11] = assay: Antibacterial activity against Escherichia coli harboring pBC633 plasmid expressing blaKPC gene by Etest method in presence of beta-lactamase inhibitor clavulanic acid
Escherichia coli [12] = assay: Antibacterial activity against Escherichia coli harboring pBC2303 expressing blaKPC gene plasmid by Etest method in presence of beta-lactamase inhibitor clavulanic acid
Escherichia coli [13] = assay: Antibacterial activity against Escherichia coli harboring pRYC plasmid expressing blaKPC gene by Etest method
Escherichia coli [14] = assay: Antibacterial activity against Escherichia coli harboring pNYC plasmid expressing blaKPC gene by Etest method in presence of beta-lactamase inhibitor clavulanic acid
Pseudomonas aeruginosa [15] = assay: Antibacterial activity against Pseudomonas aeruginosa KG2505 harboring pCOL plasmid by Etest method
Klebsiella pneumoniae [16] = assay: Antibacterial activity against Klebsiella pneumoniae GR by Etest method
Pseudomonas aeruginosa [17] = assay: Antibacterial activity against Pseudomonas aeruginosa KG2505 harboring pCOL plasmid by Etest method in presence of beta-lactamase inhibitor clavulanic acid
Pseudomonas aeruginosa [18] = assay: Antibacterial activity against Pseudomonas aeruginosa 2404 plasmid by Etest method in presence of beta-lactamase inhibitor clavulanic acid
Klebsiella pneumoniae [19] = assay: Antibacterial activity against Klebsiella pneumoniae GR by Etest method in presence of beta-lactamase inhibitor clavulanic acid
Klebsiella pneumoniae [20] = assay: Antibacterial activity against Klebsiella pneumoniae KN2303 by Etest method in presence of beta-lactamase inhibitor clavulanic acid
Escherichia coli [21] = assay: Antibacterial activity against Escherichia coli harboring pRYC plasmid expressing blaKPC gene by Etest method in presence of beta-lactamase inhibitor clavulanic acid
Pseudomonas aeruginosa [22] = assay: Antibacterial activity against Pseudomonas aeruginosa KG2505 by Etest method in presence of beta-lactamase inhibitor clavulanic acid
Escherichia coli [23] = assay: Antibacterial activity against Escherichia coli harboring pNGR plasmid expressing blaKPC gene by Etest method in presence of beta-lactamase inhibitor clavulanic acid
Pseudomonas aeruginosa [24] = assay: Antibacterial activity against Pseudomonas aeruginosa KG2505 by Etest method
Escherichia coli [25] = assay: Antibacterial activity against Escherichia coli harboring pBC633 plasmid expressing blaKPC gene by Etest method
Escherichia coli [26] = assay: Antibacterial activity against Escherichia coli harboring pNYC plasmid expressing blaKPC gene by Etest method
Klebsiella pneumoniae [27] = assay: Antibacterial activity against Klebsiella pneumoniae YC by Etest method
Escherichia coli [28] = assay: Antibacterial activity against Escherichia coli DH10B expressing blaKPC gene by Etest method in presence of beta-lactamase inhibitor clavulanic acid

| Compound | MIC (Escherichia coli [1]) [µg/mL] | MIC (Klebsiella pneumoniae [2]) [µg/mL] | MIC (Klebsiella pneumoniae [3]) [µg/mL] | MIC (Pseudomonas aeruginosa [4]) [µg/mL] | MIC (Klebsiella pneumoniae [5]) [µg/mL] | MIC (Escherichia coli [6]) [µg/mL] | MIC (Klebsiella pneumoniae [7]) [µg/mL] | MIC (Escherichia coli [8]) [µg/mL] | MIC (Escherichia coli [9]) [µg/mL] | MIC (Escherichia coli [10]) [µg/mL] | MIC (Escherichia coli [11]) [µg/mL] | MIC (Escherichia coli [12]) [µg/mL] | MIC (Escherichia coli [13]) [µg/mL] | MIC (Escherichia coli [14]) [µg/mL] | MIC (Pseudomonas aeruginosa [15]) [µg/mL] | MIC (Klebsiella pneumoniae [16]) [µg/mL] | MIC (Pseudomonas aeruginosa [24]) [µg/mL] | MIC (Escherichia coli [25]) [µg/mL] | MIC (Escherichia coli [26]) [µg/mL] | MIC (Klebsiella pneumoniae [27]) [µg/mL] | also measured |
| --- | --- | --- | --- | --- | --- | --- | --- | --- | --- | --- | --- | --- | --- | --- | --- | --- | --- | --- | --- | --- | --- |
| C[C@@H](O)[C@H]1C(=O)N2C(C(=O)O)=C(S[C@@H]3CN[C@H](C(=O)Nc4cccc(C(=O)O)c4)C3)[C@H](C)[C@H]12 | 0.25 (≈ 0.526 µM) | 8 | 2 | > 32 | > 32 | 0.38 (≈ 0.799 µM) | > 32 | 0.004 (≈ 0.00841 µM) | 0.25 (≈ 0.526 µM) | 0.002 | 0.19 | 0.02 | 4 (≈ 8.41 µM) | 0.05 | > 32 | 12 (≈ 25.2 µM) | 0.25 (≈ 0.526 µM) | 2 (≈ 4.21 µM) | 0.5 (≈ 1.05 µM) | 24 (≈ 50.5 µM) | MIC (Pseudomonas aeruginosa [17]): 2 µg/mL; MIC (Pseudomonas aeruginosa [18]): > 32 µg/mL; MIC (Klebsiella pneumoniae [19]): 6 µg/mL; MIC (Klebsiella pneumoniae [20]): > 32 µg/mL; MIC (Escherichia coli [21]): 1.5 µg/mL; MIC (Pseudomonas aeruginosa [22]): 0.03 µg/mL; MIC (Escherichia coli [23]): 0.01 µg/mL; MIC (Escherichia coli [28]): 0.05 µg/mL |
| CO/N=C(\C(=O)N[C@@H]1C(=O)N2C(C(=O)[O-])=C(C[N+]3(C)CCCC3)CS[C@H]12)c1csc(N)n1 | 1 (≈ 2.08 µM) | – | – | > 32 | > 32 | 1.5 (≈ 3.12 µM) | > 32 | 0.02 (≈ 0.0416 µM) | 3 (≈ 6.24 µM) | – | – | – | > 32 | – | > 32 | > 32 | 0.5 (≈ 1.04 µM) | 4 (≈ 8.32 µM) | 1 (≈ 2.08 µM) | – | – |
| CC1(C)S[C@@H]2[C@H](NC(=O)[C@H](N)c3ccc(O)cc3)C(=O)N2[C@H]1C(=O)O [AMOXICILLIN] | > 256 | 32 | 32 | > 256 | > 256 | > 256 | > 256 | 2 (≈ 5.47 µM) | > 256 | 2 | 32 | 24 | > 256 | 32 | > 256 | > 256 | 0.25 (≈ 0.684 µM) | > 256 | > 256 | > 256 | MIC (Pseudomonas aeruginosa [17]): > 256 µg/mL; MIC (Pseudomonas aeruginosa [18]): > 256 µg/mL; MIC (Klebsiella pneumoniae [19]): 48 µg/mL; MIC (Klebsiella pneumoniae [20]): > 256 µg/mL; MIC (Escherichia coli [21]): 64 µg/mL; MIC (Pseudomonas aeruginosa [22]): 0.25 µg/mL; MIC (Escherichia coli [23]): 24 µg/mL; MIC (Escherichia coli [28]): 24 µg/mL |
| C[C@H]1[C@H](NC(=O)/C(=N\OC(C)(C)C(=O)O)c2csc(N)n2)C(=O)N1S(=O)(=O)O [AZTREONAM] | 24 (≈ 55.1 µM) | – | – | – | – | 16 (≈ 36.7 µM) | – | – | 192 (≈ 441 µM) | – | – | – | – | – | – | – | – | – | 16 (≈ 36.7 µM) | – | – |
| CO/N=C(\C(=O)N[C@@H]1C(=O)N2C(C(=O)O)=C(COC(C)=O)CS[C@H]12)c1csc(N)n1 [CEFOTAXIME] | 3 (≈ 6.59 µM) | > 32 | 16 | > 32 | > 32 | 4 (≈ 8.78 µM) | > 32 | 0.05 (≈ 0.11 µM) | 16 (≈ 35.1 µM) | 0.01 | 3 | 0.38 | > 32 | 2 | > 32 | > 32 | 0.25 (≈ 0.549 µM) | 32 (≈ 70.3 µM) | 4 (≈ 8.78 µM) | > 32 | MIC (Pseudomonas aeruginosa [17]): > 32 µg/mL; MIC (Pseudomonas aeruginosa [18]): > 32 µg/mL; MIC (Klebsiella pneumoniae [19]): 32 µg/mL; MIC (Klebsiella pneumoniae [20]): > 32 µg/mL; MIC (Escherichia coli [21]): > 32 µg/mL; MIC (Pseudomonas aeruginosa [22]): 0.19 µg/mL; MIC (Escherichia coli [23]): 0.38 µg/mL; MIC (Escherichia coli [28]): 0.25 µg/mL |
| CO[C@@]1(NC(=O)Cc2cccs2)C(=O)N2C(C(=O)O)=C(COC(N)=O)CS[C@@H]21 [CEFOXITIN] | 2 (≈ 4.68 µM) | – | – | > 64 | > 32 | 4 (≈ 9.36 µM) | > 32 | 2 (≈ 4.68 µM) | 8 (≈ 18.7 µM) | – | – | – | > 32 | – | > 32 | > 32 | 0.25 (≈ 0.585 µM) | > 32 | 2 (≈ 4.68 µM) | > 32 | – |
